Measurements: the METLIN SMRT retention time set (Domingo-Almenara et al. 2019)

Assay: gradient 5% acetonitrile 3 min, to 50% in 2 min, to 85% in 15 min, held 3 min, 100 µL/min
Conditions: column: Zorbax Extend-C18 2.1 x 50 mm; eluents: water / acetonitrile, 0.1% formic acid
How it was run: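 Retention times come from adduct peaks that were picked computationally and then checked by hand. The standards, pure and pooled in mixtures of ~100 molecules, were run on a Zorbax Extend-C18 column (2.1 × 50 mm, 1.8 μm) at 100 μL/min with water and acetonitrile, each with 0.1% formic acid. Detection was by quadrupole time-of-flight mass spectrometry in positive and negative ionization mode, with a dead volume of 40 μL and a dwell volume of 900 μL.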

| Structure (SMILES) | RP-LC retention time |
| --- | --- |
| CCOC(=O)C1CCCN(C(=O)CCC(=O)N2CCCn3nc(C)cc32)C1 (stereo unspecified) | 647 s |
| CCC(C(=O)NCCN1CCOCC1)n1nc(C)c2nn(-c3ccccc3)c(C)c2c1=O (stereo unspecified) | 640 s |
| Cc1ccccc1-c1noc(Cc2nnc(-c3cccc(Br)c3)o2)n1 | 853 s |
| COc1ccc(C2C(=O)N(C3CCCCC3)CC(=O)N2Cc2ccc3c(c2)OCO3)cc1 (stereo unspecified) | 893 s |
| COc1cccc(N2CCN(C(=O)c3cc4c(-c5cccs5)nn(-c5ccccc5)c4n3C)CC2)c1 | 1180 s |
| COc1ccc(CNC(=O)Cc2csc3nc(-c4cccc(Br)c4)cn23)cc1 | 886 s |
| COc1ccc(N2CCN(C(=O)C3(c4ccc(NC(=O)C5CC5)cc4)CCC3)CC2)cc1 | 816 s |
| O=S(=O)(NC1(c2nc(-c3ccsc3)no2)CCCCC1)c1ccc2c(c1)OCCO2 | 954 s |
| O=C(Cc1cccs1)N1CCc2c([nH]c3ccccc23)C1c1ccccc1 (stereo unspecified) | 1130 s |
| Cc1ccc(N2CCN(S(=O)(=O)c3cc(-c4nnc(C5CC5)o4)co3)CC2)cc1 | 818 s |
| CCCCCOC(=O)Nc1nc(=O)n(C2OC(C)C(O)C2O)cc1F (stereo unspecified) | 874 s |
| Cc1c(C(=O)NCC(C)C)cnn1-c1cc(-c2nc(C(C)(C)C)no2)ccn1 | 1150 s |
| CC(C)Cn1nc2ccc(S(=O)(=O)N3CCOCC3)cn2c1=O | 732 s |
| O=C(Nc1ccc(OC(F)(F)F)cc1)C1CCN(C(=O)C2Sc3ccccc3NC2=O)CC1 (stereo unspecified) | 893 s |
| O=c1n(Cc2ccc(F)cc2)nc2ccc(S(=O)(=O)N3CCCCC3)cn12 | 923 s |
| COc1ccc(NS(=O)(=O)c2ccc3c(c2)C(=O)N(C)c2ncccc2O3)cc1F | 891 s |
| COC(=O)c1cc(S(=O)(=O)N2CCCC2C(=O)Nc2c(Cl)cc(OC)cc2OC)cn1C (stereo unspecified) | 930 s |
| CCCNC(=O)C1CCCN(c2ccc(SCC(=O)Nc3ccc4c(c3)OCCO4)nn2)C1 (stereo unspecified) | 657 s |
| Cc1cn(C)c(CC(=O)NCc2cccs2)c1C(=O)O | 693 s |

Other lines, results leading:

| RP-LC retention time | Structure (SMILES) |
| --- | --- |
| 1160 s | O=C(CSc1nc(-c2ccccc2)ns1)OCc1ccccc1 |
| 752 s | COc1cccc(CNC(=O)c2cn(-c3cc(N4CCOCC4)ncn3)cn2)c1 |
| 663 s | COc1cc2c(cc1OC)C(C(=O)NCCCN1CCCC1=O)C1c3ccccc3CCN1C2=O (stereo unspecified) |
| 914 s | Cc1nn(-c2ccccc2)c(C)c1S(=O)(=O)N1CCC(C(=O)Nc2ccc3c(c2)OCCO3)CC1 |
| 558 s | O=C(NC1CCc2nnc(C3CC3)n2CC1)c1ccc(Cn2cncn2)o1 (stereo unspecified) |
| 844 s | COCc1cc(=O)n(CC(=O)Nc2ccc(C)cc2C)c(N2CCOCC2)n1 |
| 832 s | CCc1noc2nc(C)n(CC(=O)NCCCc3ccccc3)c(=O)c12 |
| 930 s | CC(C)c1ccc(NC(=O)C2CCN(S(C)(=O)=O)c3ccccc3O2)cc1 (stereo unspecified) |
| 658 s | Cn1nc(C(=O)N2CCOCC2)c2c1CCN(C(=O)Nc1ccccc1)C2 |
| 936 s | CCC1Oc2ccc(S(=O)(=O)N3CCC(C(=O)Nc4cc(C)ccc4OC)CC3)cc2NC1=O (stereo unspecified) |
| 867 s | COc1cc(S(=O)(=O)NCc2ccccc2)c(OC)cc1Br |
| 543 s | CN1CCCC1c1nc(C2CN(C(=O)c3ccnn3C)C2)no1 (stereo unspecified) |
| 965 s | COc1c(C(=O)NC2CC2)sc2cc(Cl)ccc12 |
| 827 s | O=C(COc1ccc2c(c1)C(=O)CC2)NCCC1=CCCCC1 |
| 582 s | Cn1nc(C(=O)Nc2ccc(S(N)(=O)=O)cc2)ccc1=O |
| 928 s | O=C(CN1C(=O)C(C(=O)N2CCCC2)Sc2ccccc21)NCc1ccccc1Cl (stereo unspecified) |
| 573 s | COc1ccc(OCC(=O)N2CCN(c3nccn3-c3ccccc3F)CC2)cc1 |
